“Also recorded” adds a separate entry of the source.
Tests used:
[1] = system: preterm birth; details: pregnant women, literature studies; cited from earlier work
[2] = system: LPS-induced fetal wastage in pregnant mice; assay: LPS-induced inflammation mouse model of fetal wastage; type: in vivo; details: 3× drug + LPS-100 compared with LPS-100 alone
Description: FIG. 3A and FIG. 3B depict results from LPS-induced inflammation mouse model of fetal wastage. Circles represent results from independent mouse pregnancies. Error bars represent mean ±SD. Comparisons were made using the Student's two-sided t-test. […] FIG. 3B: The LPS-100 group compared to the P4 positive control group (3×P4+LPS-100) and the lansoprazole treatment group (3×lansoprazole+LPS-100).
Statistical Analysis. Reversal scores were generated for sPTB-drug pairs using a non-parametric, rank-based method based on the Kolgomorov-Smirnov test. Reversal score p-values were obtained by comparing to a distribution of 100,000 random scores and then adjusted via FDR for multiple comparisons. […] To ensure that the significance of the score is specific to the drug in question, for one candidate drug, lansoprazole, we also compared 1,000 random input signatures to the lansoprazole profile. […] For testing the distributions in the mouse model studies, comparisons were made using the 2-tailed Student's t-test and adjusted via FDR for multiple comparisons. A P value less than 0.05 was considered significant.
Inflammation-induced mouse model validation of lansoprazole. Despite having the highest reversal score, cefotaxime shares few protein interactions. Lansoprazole has the next highest reversal score. Moreover, lansoprazole is available over-the-counter, whereas cefotaxime requires a prescription. […]

Structure (SMILES): Clc1ccccc1C(c1ccccc1)(c1ccccc1)n1ccnc1 [clotrimazole]
- rate of preterm birth in past studies [1]: significant reduction in the rate of PTB

Structure (SMILES): Nc1nc2ncc(CNc3ccc(C(=O)N[C@@H](CCC(=O)O)C(=O)O)cc3)nc2c(=O)[nH]1 [folic acid]
- rate of preterm birth in past studies [1]: possible reduction of preterm birth

Structure (SMILES): Cc1c(OCC(F)(F)F)ccnc1C[S+]([O-])c1nc2ccccc2[nH]1 (stereo not drawn) [lansoprazole]
- number of viable fetuses at E12.5 [2]: significantly effective in recovering the number of viable fetuses; also recorded: significantly (P<0.05) increase the number of viable fetuses

Structure (SMILES): CN(C)C(=N)N=C(N)N [metformin]
- rate of preterm birth in past studies [1]: reduce the rate of PTB compared with placebo

Structure (SMILES): CC(=O)[C@H]1CC[C@H]2[C@@H]3CCC4=CC(=O)CC[C@]4(C)[C@H]3CC[C@]12C [progesterone]
- rate of preterm birth in past studies [1]: effective in reducing the rate of sPTB
- number of viable fetuses at E12.5 ([2]; listed as P4): showed some effectiveness at recovering the number of viable fetuses

Source: patent US12310934B2, “Methods of treatment of spontaneous preterm birth” (The Regents of the University of California, priority 2019, dated 2025)
